From ChEMBL document CHEMBL5661955, “ASAP - In vitro cytotoxicity” (2024)
“And” between values parts separate entries of the source, which are not always exact repeats. Equal values may be shown once.

Legend:
[1] = Functional assay to measure dose dependent changes in cell viability from drug treatment in Vero E6 miRFP670 cells (cotreated with P-gp inhibitor, CP100356) that are infected with Dengue virus type 2 New Guinea C. […] Cytotoxicity is reported via via analysis of DAPI count using high-content imager. The assay has been performed by KU Leuven.; format: toxicity, cell-based, Vero C1008; settings: chlorocebus sabaeus, p-gp concentration 500 nM
[2] = Functional metabolic assay to measure dose dependent changes in cell viability from drug treatment in Vero E6/TMPRSS2 cells (cotreated with P-gp inhibitor, Elacridar). […] Cytotoxicity is reported via measuring absorbance and analysis of MTT/MTS assays in uninfected cells. The assay has been performed by Icahn School of Medicine at Mount Sinai.; format: toxicity, cell-based, VeroE6/TMPRSS2; settings: chlorocebus sabaeus, p-gp concentration 2 uM
[3] = Functional CPE-based assay to measure dose dependent changes in cell viability from drug treatment in Vero E6 miRFP670 cells (cotreated with P-gp inhibitor, CP100356). Cells are treated with antiviral candidates that have been serially diluted. Cytotoxicity is reported via analysis of MTS assays in uninfected cells. The assay has been performed by KU Leuven.; format: toxicity, Vero C1008; settings: chlorocebus sabaeus, p-gp concentration 500 nM
[4] = with CP100356 (P-gp inhibitor, concentration not stated)
[5] = Vero E6/TMPRSS2 cells, with Elacridar (P-gp inhibitor, concentration not stated)
[6] = Vero E6 miRFP670 cells, with CP100356 (P-gp inhibitor, concentration not stated)

Row | Compound | CC50 [1, 4] [µM] | CC50 [2, 5] [µM] | CC10 ([2]; veroe6/tmprss2) [µM] | CC50 [3, 6] [µM] | also measured
1 | NCCCCc1ccc(NC(=O)c2cc(Cl)cc(NC(=O)OCc3ccccc3)c2)cc1 | 6.49 | > 50 | > 50 |  | 
2 | O=C(Nc1cc(Cl)cc(S(=O)(=O)Nc2cccc(-c3nn[nH]n3)c2)c1)OCc1ccccc1 |  | > 50 | > 50 |  | 
3 | O=C(O)CCc1ccc(NC(=O)c2cc(Cl)cc(NC(=O)OCc3ccccc3)c2)cc1 |  | > 50 | > 50 |  | 
4 | O=C(Nc1cc(Cl)cc(C(=O)Nc2cc(Br)cc(-c3nnn[nH]3)c2)c1)OCc1ccccc1 |  | > 50 | > 50 |  | 
5 | O=C(Nc1ccc2c(c1)CNC2)c1cc(Cl)cc2cc[nH]c12 | 19.7 |  |  | 5.91 | 
6 | O=C(Nc1cc(Br)c2c(c1)CNC2)c1cc(F)cc2[nH]ncc12 | > 50 |  |  | > 50 | 
7 | C=CC[C@H](Nc1cc(Cl)cc(NC(=O)OCc2ccccc2)c1)c1cccc(-c2nn[nH]n2)c1 |  | > 50 | 0.105 |  | 
8 | NCCCc1ccnc(NC(=O)c2cc(Cl)cc(NC(=O)OCc3ccccc3)c2)c1 |  | 16.2 | 2.116 |  | 
9 | CC[C@H](Cc1nn[nH]n1)c1ccc(N[C@H](C(=O)NC)c2cc(Cl)cc(NC(=O)OCc3ccccc3)c2)cc1 |  | > 50 | > 50 |  | 
10 | O=C(NC1CCOCC1)[C@H](Nc1ccc2c(c1)CNC2)c1cc(Cl)cc2[nH]ncc12 | > 50 |  |  | > 50 | 
11 | CC1=C(c2cc(NC(=O)c3cc(Cl)cc4[nH]ncc34)cc3c2CNC3)CCC1=O | > 50 |  |  | > 50 | 
12 | NCc1cccc(NC(=O)c2cc(Cl)cc(N3CCCC3=O)c2)c1 |  |  |  |  | CC50 ([2]; veroe6/tmprss2): > 50 µM
13 | CNC(=O)[C@H](Nc1cc(Cl)cc(NC(=O)OCc2ccccc2)c1)c1cccc(-c2nn[nH]n2)c1 |  | > 50 | > 50 |  | 
14 | O=C(Nc1ccc2c(c1)CNC2)c1cc(Cl)cc2[nH]c(-c3cccc(F)c3)nc12 |  |  |  | > 50 | 
15 | O=C(Nc1ccc2c(c1)CNC2)c1cc(F)c2[nH]ccc2c1 | > 50 |  |  | 48.1 | 
16 | Cn1c(=O)[nH]c2c(C(=O)Nc3ccc4c(c3)CNC4)cc(Br)cc21 | > 50 |  |  | 34.2 | 
17 | O=C(Nc1cc2c(c(C3=CC[C@H](O)CC3)c1)CNC2)c1cc(Cl)cc2[nH]ncc12 | > 50 |  |  | > 50 | 
18 | O=C(Nc1ccc2c(c1)CNC2)c1cc(F)cc2c1CCC2 | > 50 |  |  | 33 | 
19 | NCc1cccc(NC(=O)c2cc(Cl)cc(NC(=O)OCc3ccccc3)c2)c1 |  |  |  |  | CC50 ([2]; veroe6/tmprss2): > 10 µM and 18.5 µM and 30.7 µM

Row | Compound | CC50 [1, 4] [µM] | CC50 [2, 5] [µM] | CC10 ([2]; veroe6/tmprss2) [µM] | CC50 [3, 6] [µM] | also measured
20 | Cc1cccc(-c2nc3c(C(=O)Nc4ccc5c(c4)CNC5)cc(Cl)cc3[nH]2)c1O | 9 |  |  | 3.03 | CC50 ([1]; vero c1008): 8.94 µM; CC50 ([3]; vero c1008): 3.17 µM
21 | CC[C@H](Cc1nnn[nH]1)c1ccc(NC(=O)[C@H]2[C@H]3CCCCC[C@H]3[C@H]2NC(=O)OCc2ccccc2)cc1 |  | > 50 | > 50 |  | 
22 | O=C(Nc1ccc2c(c1)CNC2)c1cccc2[nH]c(=O)[nH]c12 | 33.3 |  |  | > 50 | 
23 | O=C(Nc1cc(Cl)cc(C(=O)Nc2cc(-c3nnn[nH]3)ccc2F)c1)OCc1ccccc1 |  | > 50 | > 50 |  | 
24 | O=C(Nc1ccc2c(c1)CN[C@H]2C1CC1)c1cc(F)cc2[nH]ncc12 |  |  |  | > 50 | 
25 | CC(C)CNC(=O)[C@H](Nc1ccc2c(c1)CNC2)c1cc(Cl)cc2[nH]ncc12 | 17 |  |  | > 50 | 
26 | Cc1ccc(-c2nnn[nH]2)cc1NC(=O)c1cc(Cl)cc(NC(=O)OCc2ccccc2)c1 |  | > 50 | > 50 |  | 
27 | CCCC(=O)Nc1cc(Cl)cc(C(=O)Nc2cccc(CN)c2)c1 |  | > 50 | > 50 |  | 
28 | CCOCCNC(=O)[C@H](Nc1ccc2c(c1)CNC2)c1cc(Cl)cc2[nH]ncc12 | 9.94 |  |  | > 50 | 
29 | O=C(Nc1ccc2c(c1)CNC2)c1cc(F)cc2nn(-c3ccccn3)nc12 |  |  |  |  | CC50 ([1]; vero c1008): 7.3 µM and 1.92 µM; CC50 ([3]; vero c1008): 7.85 µM and 1.85 µM
30 | C[C@H]1NCc2cc(NC(=O)c3cc(F)cc4[nH]ncc34)ccc21 |  |  |  | > 50 | 
31 | CCCNC(=O)[C@H](Nc1ccc2c(c1)CNC2)c1cc(Cl)cc2[nH]ncc12 | 12.9 |  |  | > 50 | 
32 | O=C(Nc1ccc2c(c1)CNC2)c1cc(Cl)cc2[nH]c(-c3ccccc3)nc12 |  |  |  | 2.09 | 
33 | O=C(Nc1ccc2c(c1)CNC2)c1cc(F)cc2[nH]c(-c3ccccc3)nc12 |  |  |  | 5.81 | CC50 ([1]; vero c1008): > 50 µM and 6.86 µM; CC50 ([3]; vero c1008): 4.83 µM
34 | O=C(Nc1cc2c(cc1Br)CNC2)c1cc(F)cc2[nH]ncc12 | > 50 |  |  | 46.1 | 
35 | O=C(Nc1cc(Cl)cc(N[C@H](C#CCO)c2ccc(-c3nn[nH]n3)cc2)c1)OCc1ccccc1 |  | > 50 | > 50 |  | 
36 | O=C(Nc1ccc2c(c1)CNC2)c1cc(F)cc(-c2cnc(C3CC3)s2)c1 | 16.4 |  |  | 19.7 | 
37 | O=C(O)c1cc(Cl)ccc1S(=O)(=O)NC1CCN(c2nc(C3CC3)cc(C(F)(F)F)n2)CC1 |  |  |  |  | CC50 ([2]; veroe6/tmprss2): > 10 µM and 49.7 µM
38 | NCc1cccc(NC(=O)c2cc(Cl)cc3c2CCC3)c1 |  |  |  |  | CC50 ([2]; veroe6/tmprss2): > 50 µM
